Reference: PubChem BioAssay (NCI)
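Protocol summary: plate cells (96-well), add compound at 5 concentrations, incubate 48 h, interpolate endpoints linearly. Here, GI50 denotes the concentration required for 50% inhibition of growth. At the TGI there is no net growth.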

Tests used:
Experiment in all cases: NCI anticancer screen, dose series, 48 h
[1] = system: MDA-MB-435
[2] = system: TK-10 renal
[3] = system: SN12C renal
[4] = system: MOLT-4 leukemia
[5] = system: HOP-62 NSCLC
[6] = system: HOP-92 NSCLC
[7] = system: A549 NSCLC
[8] = system: BT-549 breast
[9] = system: T-47D breast
[10] = system: U251 CNS

| SMILES | GI50 [1] [µM] | TGI [1] [µM] | GI50 [2] [µM] | TGI [2] [µM] | GI50 [3] [µM] | TGI [3] [µM] | GI50 [4] [µM] | TGI [4] [µM] | GI50 [5] [µM] | TGI [5] [µM] | GI50 [6] [µM] | TGI [6] [µM] | GI50 [7] [µM] | TGI [7] [µM] | GI50 [8] [µM] | TGI [8] [µM] | GI50 [9] [µM] | TGI [9] [µM] | GI50 [10] [µM] | TGI [10] [µM] |
| --- | --- | --- | --- | --- | --- | --- | --- | --- | --- | --- | --- | --- | --- | --- | --- | --- | --- | --- | --- | --- |
| CC(=O)Nc1ccc(C(=O)COc2cccc(/C=C3\CCc4ccccc4C3=O)c2)cc1 | 5.58 | 30 | 28.2 | > 100 | 27.6 | > 100 | 4.3 | 20.9 | 24 | 60.3 | 15.1 | 60.9 | 38.1 | > 100 | 17.6 | 54.2 | 11 | 57.2 | 12.4 | 27.8 |
| Cc1cc2c(SCc3ccccc3Cl)nc(N)nc2nc1C | – | > 100 | – | > 100 | – | > 100 | – | – | – | > 100 | – | > 100 | – | > 100 | – | > 100 | – | > 100 | – | > 100 |
| O=C(c1ccccc1)c1ccc(N2C(=O)C3C4c5ccccc5C(/C=C/C(=O)c5ccccn5)(c5ccccc54)C3C2=O)cc1 (stereo not given) | 2.9 | 9.22 | 6.68 | > 100 | 2.73 | > 100 | 2.29 | > 100 | 3.43 | > 100 | 1.8 | 7.13 | 2.87 | > 100 | 2.62 | 9.88 | 2.75 | > 100 | 2.08 | 4.62 |
| COc1ccc(C[C@H](N)C(=O)N[C@@H]2[C@@H](CO)OC(n3cnc4c(N(C)C)ncnc43)[C@@H]2O)cc1 (stereo not given in full) | 0.214 | 0.809 | – | 1.38 | – | 1.31 | 0.275 | 1.77 | – | 1.1 | 0.12 | 0.51 | – | – | 0.588 | 1.83 | 0.137 | 0.565 | 0.136 | 0.507 |
| Oc1ccc(CCNc2nc3ccccc3c3[nH]c4ccccc4c23)cc1 | 1.6 | 3.16 | 1.75 | 3.3 | 1.27 | 2.62 | 0.472 | > 100 | 1.63 | 3.35 | 1.3 | 2.82 | 1.33 | 2.75 | 1.93 | 3.69 | 1.94 | 6.34 | – | – |
| N#Cc1c(N)nc(N2CCOCC2)c(C#N)c1-c1ccc(Cl)cc1Cl | 5.75 | 21.9 | – | – | 16.1 | 43.3 | 24.2 | > 100 | 28 | 91.6 | 3.35 | 26.3 | 20.2 | 54.9 | 17.4 | 55.8 | 12.9 | 81.4 | 17.4 | 42.4 |
| Cn1c(=O)c(-c2c(Cl)cccc2Cl)cc2cnc(Nc3ccc(N4CCOCC4)cc3)nc21 | – | – | – | 1.24 | 0.129 | 4.65 | < 0.0476 | 0.804 | < 0.01 | 0.124 | 0.211 | 1.93 | 0.666 | – | 0.109 | – | 0.598 | 9.77 | 0.17 | 6.13 |
